As a reminder, the IC50 is the concentration needed to halve the response being measured.

The assay deals with histidine-tagged recombinant human TrkA, cytoplasmic domain (Homo sapiens (Human), UniProt P04629). The assay can be described thus: TrkA ELISA Assay. The format is biochemical. Particulars: 2.5 nM TrkA, 500 μM ATP, 25 minutes; read-out: TrkA Elisa Enzyme IC50. In short, it runs like this: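 IC50 derived by 4- or 5-parameter logistic fit of A450 signal from HRP-conjugated PY20 anti-phosphotyrosine with TMB. Reaction: poly(Glu,Ala,Tyr)-coated wells, 2.5 nM kinase, 500 μM ATP, MOPS pH 7.5 buffer with MgCl2, 25 min, ambient temperature.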
Sequence of histidine-tagged recombinant human TrkA, cytoplasmic domain (P04629 440-796): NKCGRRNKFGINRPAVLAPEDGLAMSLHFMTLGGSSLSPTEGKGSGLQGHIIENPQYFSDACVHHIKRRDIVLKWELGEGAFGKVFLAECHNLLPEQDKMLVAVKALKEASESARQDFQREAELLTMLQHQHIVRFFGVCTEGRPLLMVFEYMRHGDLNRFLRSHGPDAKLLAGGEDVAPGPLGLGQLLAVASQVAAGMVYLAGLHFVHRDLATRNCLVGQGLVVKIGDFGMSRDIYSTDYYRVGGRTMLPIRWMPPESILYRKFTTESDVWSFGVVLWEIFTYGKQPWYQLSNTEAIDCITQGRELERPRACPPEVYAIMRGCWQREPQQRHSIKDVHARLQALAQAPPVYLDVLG

`NC(=O)C(=O)Nc1cnn2ccc(N3CCC[C@@H]3c3cc(F)ccc3F)nc12` [Example 99, (R)—N^1-(5-(2-(2,5-difluorophenyl)pyrrolidin-1-yl)pyrazolo[1,5-a]pyrimidin-3-yl)oxalamide]: the concentration for half-maximal inhibition (IC50) is 0.00465 µM. To `O=C(Nc1cnn2ccc(N3CCC[C@@H]3c3cc(F)ccc3F)nc12)C(=O)NC1CC1` [Example 100, (R)—N^1-cyclopropyl-N2-(5-(2-(2,5-difluorophenyl)pyrrolidin-1-yl)pyrazolo[1,5-a]pyrimidin-3-yl)oxalamide] belongs 0.0158 µM.

On to `O=C(Nc1cnn2ccc(N3CCC[C@@H]3c3cc(F)ccc3F)nc12)C(=O)N1CC(O)C1` [Example 101, (R)—N-(5-(2-(2,5-difluorophenyl)pyrrolidin-1-yl)pyrazolo[1,5-a]pyrimidin-3-yl)-2-(3-hydroxyazetidin-1-yl)-2-oxo acetamide], for which the half-maximal inhibitory concentration (IC50) was 0.0101 µM.

With `O=C(Nc1cnn2ccc(N3CCC[C@@H]3c3cc(F)ccc3F)nc12)C(=O)N1CC[C@H](O)C1` [Example 102, N-(5-((R)-2-(2,5-difluorophenyl)pyrrolidin-1-yl)pyrazolo[1,5-a]pyrimidin-3-yl)-2-((S)-3-hydroxypyrrolidin-1-yl)-2-oxoacetamide], the IC50 is 0.0128 µM. `O=C(Nc1cnn2ccc(N3CCC[C@@H]3c3cc(F)ccc3F)nc12)C(=O)N1CCOCC1` [Example 103, (R)—N-(5-(2-(2,5-difluorophenyl)pyrrolidin-1-yl)pyrazolo[1,5-a]pyrimidin-3-yl)-2-morpholino-2-oxoacetamide]: the half-inhibitory concentration (IC50) turned out to be 0.0824 µM. For `COC(=O)C(=O)Nc1cnn2ccc(N3CCC[C@@H]3c3cc(F)ccc3F)nc12` [Example 104, (R)-methyl 2-(5-(2-(2,5-difluorophenyl)pyrrolidin-1-yl)pyrazolo[1,5-a]pyrimidin-3-ylamino)-2-oxoacetate], the IC50 amounted to 0.00765 µM. Consider `O=C(O)C(=O)Nc1cnn2ccc(N3CCC[C@@H]3c3cc(F)ccc3F)nc12` [Example 105, (R)-2-(5-(2-(2,5-difluorophenyl)pyrrolidin-1-yl)pyrazolo[1,5-a]pyrimidin-3-ylamino)-2-oxoacetic acid], for which the IC50 worked out at 0.0047 µM.

(Values after patent publication US8865698B2, “Method of treatment using substituted pyrazolo[1,5-a]pyrimidine compounds” (Array BioPharma Inc., priority 2008, dated 2014).)
